Data on three molecules can be found in PMC8165160, “Substrate Specificities and Inhibition Pattern of the Solute Carrier Family 10 Members NTCP, ASBT and SOAT” (Frontiers in Molecular Biosciences, 2021).

Where a name gives a salt, the structure may show the parent alone. Read-outs that look alike come from different tables or passages of the source.

The target of one test is T1, NTCP (Homo sapiens, UniProt Q14973).
T1 sequence (Q14973 1-349): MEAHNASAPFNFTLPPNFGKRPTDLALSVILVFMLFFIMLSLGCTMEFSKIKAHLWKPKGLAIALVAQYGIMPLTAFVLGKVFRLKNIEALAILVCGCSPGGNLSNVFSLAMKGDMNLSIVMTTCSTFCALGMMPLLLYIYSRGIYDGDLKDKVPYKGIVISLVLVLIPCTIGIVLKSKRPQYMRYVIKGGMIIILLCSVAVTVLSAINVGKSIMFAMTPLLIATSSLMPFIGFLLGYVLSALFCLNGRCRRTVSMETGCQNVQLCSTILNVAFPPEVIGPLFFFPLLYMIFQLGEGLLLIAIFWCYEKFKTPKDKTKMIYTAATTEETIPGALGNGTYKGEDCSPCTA
Description: Substrate screening: sodium-dependent uptake of radiolabeled compounds in NTCP-HEK293 cells. In kind it is cell-based. Details: The full-length open reading frames of NTCP, ASBT, and SOAT were cloned; expressed in transfected cells; host or cells: Flp-In T-REX HEK293 (NTCP-HEK293), tetracycline-induced. The note with it: NTCP-HEK293, vs sodium-free control.

A further test has as its target T2, SOAT (Homo sapiens, UniProt Q3KNW5).
T2 construct: The full-length open reading frames of NTCP, ASBT, and SOAT were cloned; expressed in transfected cells; host or cells: Flp-In T-REX HEK293 (SOAT-HEK293), tetracycline-induced
T2 sequence (Q3KNW5 1-377): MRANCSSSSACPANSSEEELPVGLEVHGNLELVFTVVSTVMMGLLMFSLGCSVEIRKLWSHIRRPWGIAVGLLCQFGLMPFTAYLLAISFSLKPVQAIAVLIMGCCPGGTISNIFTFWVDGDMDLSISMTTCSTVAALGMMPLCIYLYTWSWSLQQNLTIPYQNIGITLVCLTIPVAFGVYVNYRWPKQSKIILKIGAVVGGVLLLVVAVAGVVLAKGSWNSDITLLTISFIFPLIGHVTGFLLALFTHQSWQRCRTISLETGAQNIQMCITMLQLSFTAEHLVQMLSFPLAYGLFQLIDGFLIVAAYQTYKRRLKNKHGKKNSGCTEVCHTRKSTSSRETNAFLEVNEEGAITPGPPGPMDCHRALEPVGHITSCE
The test can be described thus: Transport inhibition in SOAT-HEK293 cells. In kind it is cell-based. The note with it: substrate inhibitors, 1 min after 5 min preincubation. The procedure:
Cells were washed three times with PBS and were preincubated with the respective inhibitor in sodium transport buffer for 5 min at 37°C. Uptake was initiated by adding the respective radiolabeled substrate to the well and incubating for a fixed time as indicated in the figures at 37°C. Transport was terminated by removing the transport buffer and washing five-times with ice-cold PBS. Cell monolayers were lysed in 1 N NaOH with 0.1% SDS and the cell-associated radioactivity and protein content was determined as described above. For uptake inhibition with the myr-preS1 peptide the sodium transport buffer contained additionally MEM-amino acid solution (ThermoFisher) at 1:50 dilution.
All transport or inhibition graphs were generated with GraphPad Prism 6.0 (GraphPad). Determination of IC50 values was done by nonlinear regression analysis using the equation log (inhibitor) vs. response settings. If not stated otherwise in the legends all data represent means ± SD of at least triplicate determinations of representative experiments.
FIGURE 3 Inhibition of NTCP, ASBT, and SOAT with substrate inhibitors. Transport of [^3H]TC, [^3H]TLC, and [^3H]DHEAS was analyzed in NTCP-HEK293, ASBT-HEK293, and SOAT-HEK293 cells in the presence of the substrate inhibitors TC, TLC, and DHEAS at increasing concentrations ranging from 100 nM till 1000 µM. After 5 min of preincubation with the respective inhibitory compound, 200 nM [^3H]TLC, [^3H]TC or [^3H]DHEAS were added for additional 1 min and the cell lysates were analyzed by liquid scintillation counting. Unspecific uptake of HEK293-FlpIn cells was set to 0%. Carrier-specific uptake without inhibitor was set to 100%.
Transport of [^3H]TC, [^3H]TLC, and [^3H]DHEAS was analyzed in NTCP-HEK293, ASBT-HEK293, and SOAT-HEK293 cells in the presence of different supposed non-substrate triterpenoid inhibitors as indicated at increasing concentrations ranging from 100 nM till 1000 µM. After 5 min of preincubation with the respective inhibitory compound, 1 µM [^3H]TLC, [^3H]TC or [^3H]DHEAS were added for additional 10 min at 37°C and the cell lysates were analyzed by liquid scintillation counting. Experiments performed without inhibitor were set to 100%. Means of negative controls were subtracted to calculate net transport rates (expressed as percentage of control). Data represent means ± SD of quadruplicate determinations of representative experiments.

Setting [1] is: SOAT IC50, substrate [3H]DHEAS, 200 nM [3H]DHEAS.
Where [2] appears, read: SOAT IC50, substrate [3H]TLC, 200 nM [3H]TLC.
[3] abbreviates: radiolabeled bile acids 1 µM, 30 min.

With `C[C@]12CC[C@H](OS(=O)(=O)O)CC1=CC[C@@H]1[C@@H]2CC[C@]2(C)C(=O)CC[C@@H]12` [DHEAS, Dehydroepiandrosterone sulfate], the “Transport activity grading NTCP (mean uptake)” value (“Transport activity grading NTCP” below) on NTCP (radiolabeled steroid compounds 200 nM, 10 min) was “+ (Mean uptake “+” for values below 10)”. Also, the IC50 against SOAT (setting [1]) turned out to be 51.7 µM; at SOAT (setting [2]), 15 µM.
Take `C[C@H](CCC(=O)NCCS(=O)(=O)O)[C@H]1CC[C@H]2[C@@H]3[C@H](O)C[C@@H]4C[C@H](O)CC[C@]4(C)[C@H]3C[C@H](O)[C@]12C` [Taurocholic acid]: the “Transport activity grading NTCP” value at NTCP (setting [3]) is reported as “+++ (“+++” for values above 1000 pmol/mg protein/30 min)”. Also, the half-inhibitory concentration (IC50) is 99.7 µM on SOAT (setting [1]) and 143 µM against SOAT (setting [2]).
With `C[C@H](CCC(=O)NCCS(=O)(=O)O)[C@H]1CC[C@H]2[C@@H]3CC[C@@H]4C[C@H](O)CC[C@]4(C)[C@H]3CC[C@]12C` [Taurolithocholic acid], the “Transport activity grading NTCP” value at NTCP (setting [3]) is “+++ (“+++” for values above 1000 pmol/mg protein/30 min)”. The IC50 on SOAT (200 nM [3H]DHEAS, read-out: SOAT IC50, substrate [3H]DHEAS) came out at 3.9 µM; at SOAT (200 nM [3H]TLC, read-out: SOAT IC50, substrate [3H]TLC), 2.6 µM.
